Reference: US20100075993A1, “SMALL MOLECULE INHIBITORS AGAINST WEST NILE VIRUS REPLICATION” (DREXEL UNIVERSITY, priority 2005, published 2010)

How the values were obtained:
WNV RNA = assay: Northern blot of WNV RNA in compound treated replicon cells; assay type: cell-based, West Nile virus; conditions: for WNV RNA replication / RNA level (northern blot): 10 μM, 48 hours; for WNV RNA reduction: 48-hour treatment, compounds 10 μM
Experimental: FIG. 6 is a picture of a Northern blot gel of compound treated WNV replicon cells. 4×10^4 cells were seeded in 24 well plates. After 24 hours, the cells were treated with DMSO (lanes 2, 3) or the non-specific inhibitors, MPA (lane 1) or the compounds […] (lane 4), 18-B3 (lane 5) or 52-F2 (lane 6). After 48 hours, total RNA were isolated, separated on denaturing agrose gels and transferred to nylon membrane. Total RNA from a non-replicon cell (Huh-7 cell) was loaded in lane 7 as negative control. The membrane was probed with [^32P]-dCTP-labeled WNV NS5 and human beta-actin. The signal was quantified using a BioRad phosphoimager and WNV RNA level was calculated using beta-actin as a reference.
To confirm that the compounds can indeed inhibit WNV RNA replication, the WNV RNA level in the replicon cells treated with compounds by Northern blot analysis. Several hit compounds, 18-B3, 275-F9, 275-D9, 52-F2 and MPA were selected to treat the BHK 26.5 cells at 10 μM. […] The “hit” compounds 18-B3 and 275-F9 reduced WNV RNA by 1.5 and 2 fold, respectively (FIG. 6, lanes 4, 5). 18-B3 is one of the nine compounds that have similar structures while 275-F9 is one from another class of four compounds (Table 3).
Total cellular RNA was extracted by using the RNEASY kit (Qiagen NV, Netherlands). Northern blot analysis was done according to the protocol of Gu et al. 2002 (8). Briefly, 5 μg total RNA was electrophoresed through a 1.0% agarose gel containing 2.2M formaldehyde, transferred to a nylon membrane and immobilized by UV cross-linking (Stratagene, La Jolla, Calif.). After pre-hybridization in 5 ml of QuickHyb (Amersham, Piscataway, N.J. GE Healthcare, Giles, UK), [2P] dCTP-labeled probe made by random primer labeling of a 2.7 kb NS5 DNA fragment and a human beta-actin DNA at 65° C. The membrane was washed twice in 2×SSC/0.1% SDS for 10 min at room temperature and twice in 0.1×SSC/0.1% SDS for 15 min at 68° C. Membranes were exposed to Molecular Imager FX phosphoimager (BioRad, Hercules, Calif.) and the radiographic signals were collected and quantitated.

BHK 26.5 replicon cells = assay: MTT toxicity assay on BHK 26.5 replicon cells; assay type: cell-based; conditions: MTT assay
From the text: The HTS strategy follows the flowchart outlined in FIG. 2. 35,000 compounds were screened from a chemical library described below, using a cutoff of 50% reduction in luminescence readout as the criteria for further study. Upon completion of the screen, approximately 1100 compounds were selected, making the hit rate of 3%. This is considerably higher than expected, implying many false positive and/or cytotoxic compounds. Nevertheless, the compounds were picked out from the “daughter” plates and re-checked at a single 10 μM concentration. In addition, a duplicate 96 well plates were also plated and the toxicity of the compounds was determined in an MTT assay. Upon completion of these assays, most compounds were disqualified as either false positives or being toxicity to cells. As a result, only a small number of compounds were further analyzed directly from the “mother” plate stock. After IC50 determination and secondary assay to rule out luciferase inhibitors, 23 “hits” were identified.
(§1) Replicon-harboring cells were plated 96-well plates at 10,000 cells per well in MEM plus 3% FBS. 24 hours after plating, compounds were added to the wells by a Robotic liquid handler (Biomek NX) to a final concentration of 10 μM and 1% DMSO. For each 96 well plate, A1 to A8 were left open, H1 to H4 contained 1% DMSO, H5-H8 contained Mycophenolic acid (Sigma-Aldrich, St. Louis, Mo.), which was included as positive controls. After 24 hours of treatment, the media were removed and the luciferase activity expressed in the replicon cells was quantified. When cyto-toxicity was measured, duplicate 96 well plates were plated with BHK 26.5 replicon cells. One plate was used for luciferase assay and one plate was used for measuring toxicity using MTT assay.
(§2) Compound toxicity was determined by MTT assay. For the MTT assay, the cell medium was removed and the monolayers were incubated with 100 μl/well of 0.5 mg/ml MTT for 6 h at 37° C. The MTT solution was then aspirated and 100 μl/well of the 10% SDS (in 0.01N HCl) was added, followed by spectrophotometric quantitation (570 nm) of the insoluble MIT reaction product.

WNV replicon = WNV replicon luciferase assay in BHK 26.5 cells (HTS, re-test, IC50); assay type: cell-based, West Nile virus; conditions: for IC50: West Nile virus, 24 h; for Fold decrease (HTS) / Fold decrease (Re-test): luciferase activity; for Fold decrease (HTS): 10 μM compound, 24 hours, BHK 26.5 cells; for Fold decrease (Re-test): re-checked at a single 10 μM concentration
Experimental: Ten micromolar concentrations of a selected compound were incubated with BHK 26.5 cells expressing luciferase whose activity is dependent upon WNV replicon replication (FIG. 1A). Primary “hits” were defined by the ability to reduce the amount of luciferase enzyme activity by more than 50%, compared to controls.
To quantify and rank the activity of the 23 remaining compound “hits”, a serial dilution of each compound was incubated with WNV replicon cells to determine the concentration that inhibits 50% of the luciferase readout (IC50s). […] A number of compounds had significant effect only at the highest, 10 μM concentration. However, several compounds had IC50s between 2 and 5 (Table 3), which is very reasonable for primary HTS hits from a compound library. Only a few compounds could cause 90% inhibition in the replicon cells at the concentrations tested.
as §1
Luciferase assay was performed by using the STEADY GLO reagent (Promega Corp. Madison, Wis.) according to the manufacturer's recommendation with slight modifications. Briefly, the culture media from the 96 wells were removed by dumping on paper towels.
100 μl of a 1:1 mixture of luciferase regent and culture media were added to the plate. After 5-minute incubation, the luminescence was read on a TOPCOUNT (PerkinElmer, Wellesley, Mass.).

WNV NS3 protein = assay: Western blot of WNV protein in compound treated replicon cells; assay type: cell-based, West Nile virus; conditions: 48-hour treatment, up to 10 uM; MPA 2.5 ug/ml
Experimental: Mycophenolic acid (MPA) was used as positive control in the experiment. 4×10^4 cells were seeded in 24 well plates 24 hours before the various concentrations of compounds were added. After 48 hours of drug treatment, SDS-Sample buffer were added to the wells to lyse the cells. The protein samples were separated on SDS-PAGE and transferred to PVDF membrane. Viral protein was detected by probing with a monoclonal antibody against WNV. The same membrane was stripped and probed for beta-actin with the signals shown at the bottom of the blot.
Although it is reassuring that multiple tests have yielded similar positive results, the ability of the compounds to inhibit WNV replication was further assessed in secondary assays. In the western blot analysis shown in FIG. 5, total cell proteins were prepared from WNV replicon cells treated with the hit compounds and the viral protein NS3 was detected with a monoclonal […] against West Nile virus (15). The same blots were stripped and probed for beta-actin to show equal loading. […] When compared with the IC50 determined for these compounds in the luciferase assay, there was a good correlation between the luciferase reduction and the viral protein reduction.
Total cell lysates from replicon cells were harvested from replicon cells in 1×SDS sample buffer. The lysates were heated at 70° C. for 10 min in the presence of DTT before electrophoresis on a 10% Tris-glycine SDS polyacrylamide gel (Invitrogen) in 1× Tris-glycine buffer. The protein was transferred to PVDF (Invitrogen) membrane. Following the transfer, the membrane was rinsed once with TBS containing 0.5% Tween-20 (TBS-Tween) and blocked in TBS-Tween containing 5% non-fat milk for 1 h. After washing with PBS-Tween, the membrane was incubated with the primary WNV antibody (15) at 1:3000 dilutions for 1 h at 25° C. Prior to incubation with HRP conjugated-mouset IgG secondary antibody (Amersham, Life Science, Piscataway, N.J.) diluted 1:5000, the blot was washed in PBS-Tween. Following the secondary antibody incubation, the blot was washed again and treated with Super Signal Chemiluminescent Reagent (Pierce) according to the manufacturer's protocol and exposed to X-ray film. For controls, the blots were stripped and re-probed with an antibody to beta-actin (Chemicon), which was detected with a goat anti-mouse horseradish peroxidase conjugate.

BHK cells = assay: toxicity (MTT, CC50) in BHK cells parallel to WNV infection assay; assay type: cell-based; conditions: 20 μM, parallel toxicity assessment
Experimental: Several of these original compounds selected from the WNV replicon based screen were evaluated in an antiviral assay against WNV live virus. […] Modifications of this compound would be further investigated
The toxicity of 101-G7 was also measured by MTT assay and CC50 was calculated. 40 μM is highest concentration used.
as §2

WNV = WNV yield reduction assay (live virus) on BHK cells; assay type: cell-based, West Nile virus
Experimental: The antiviral assay for the 309-F6 compounds was conducted on BHK cells. The virus produced in the presence of 1% DMSO or various concentrations of compounds was tittered on Vero cells. The amount of virus relative to the 1% DMSO control was plotted on the y-axis; the concentration of the compound 309F6 is shown in μM on the x-axis. Data from two independently treated wells (Test 1 and Test 2) are shown.
To measure activity against live WNV, BHK cells were plated in 96-well plates at a concentration of 12,000 cells/well. One day later the cells were infected with WNV for 1 h at an MOI of 0.05. The cells were then washed once and re-fed with fresh DMEM containing dilutions of the test compound. Plates were then incubated at 37° C. for 48 h, the supernatant collected and the WNV produced titered. For virus titration, Vero cells were plated in 96-well plates at 8000 cells/well and incubated overnight. The Vero cell monolayer were then infected for 1 h with various dilutions of the WNV supernatant, overlaid with media containing 0.6% tragacanth (ICN, CA) and incubated at 37° C. for 48 h. The culture media was then aspirated; the plate was rinsed, air-dried, and fixed with 50 μl/well acetone/methanol (50:50). Viral foci were detected for enumeration by immunostaining as described previously (15).

SMILES: COc1ccc(-n2nc3c(c2NC(=O)c2cccs2)CSC3)cc1 [Compound 18-B3, Thiophene-2-carboxylic acid [2-(4-methoxy-phenyl)-2,6-dihydro-4H-thieno[3,4-c]pyrazol-3-yl]-amide]
- WNV RNA replication / RNA level (northern blot) (WNV RNA): clearly inhibited the WNV RNA replication
- WNV RNA reduction (WNV RNA): 1.5 fold
- Toxicity (uM)* (BHK 26.5 replicon cells): >30 µM
- IC50 (WNV replicon): 5 µM
- Fold decrease (HTS) (WNV replicon): 3 Fold
- Fold decrease (Re-test) (WNV replicon): 2 Fold

SMILES: COc1ccc(-n2nc3c(c2NC(=O)c2ccc(S(=O)(=O)N4CCCCC4)cc2)CSC3)cc1 [Compound 18-D2, N-[2-(4-Methoxy-phenyl)-2,6-dihydro-4H-thieno[3,4-c]pyrazol-3-yl]-4-(piperidine-1-sulfonyl)-benzamide]
- WNV NS3 protein level (western blot) (WNV NS3 protein): dose dependency is also clearly seen
- Toxicity (uM)* (BHK 26.5 replicon cells): >30 µM
- IC50 (WNV replicon): 7.5 µM
- Fold decrease (HTS) (WNV replicon): 3 Fold
- Fold decrease (Re-test) (WNV replicon): 2.8 Fold

SMILES: Cc1ccc(CCNC(=O)c2cnn3c(O)c(Cc4ccccc4F)c(C)nc23)cc1 [Compound 310-B3, 6-(2-Fluoro-benzyl)-7-hydroxy-5-methyl-pyrazolo[1,5-a]pyrimidine-3-carboxylic acid (2-p-tolyl-ethyl)-amide]
- WNV NS3 protein level (western blot) (WNV NS3 protein): reduced viral protein only at the 10 uM
- Toxicity (uM)* (BHK 26.5 replicon cells): >10 µM
- IC50 (WNV replicon): 10 µM
- Fold decrease (HTS) (WNV replicon): 17 Fold
- Fold decrease (Re-test) (WNV replicon): 4 Fold

SMILES: Cc1nc2c(C(=O)NCCC3=CCCCC3)cnn2c(O)c1Cc1ccccc1Cl [Compound 275-F9, 6-(2-Chloro-benzyl)-7-hydroxy-5-methyl-pyrazolo[1,5-a]pyrimidine-3-carboxylic acid (2-cyclohex-1-enyl-ethyl)-amide]
- WNV RNA replication / RNA level (northern blot) (WNV RNA): clearly capable of reducing the WNV RNA level
- WNV RNA reduction (WNV RNA): 2 fold
- Toxicity (uM)* (BHK 26.5 replicon cells): >10 µM
- IC50 (WNV replicon): 7.5 µM
- Fold decrease (HTS) (WNV replicon): 27 Fold
- Fold decrease (Re-test) (WNV replicon): 4.5 Fold

SMILES: CCN(CCNC(=O)c1cnn2c(O)c(Cc3ccccc3F)c(C)nc12)c1ccccc1 [Compound 309-F6, 6-(2-Fluoro-benzyl)-7-hydroxy-5-methyl-pyrazolo[1,5-a]pyrimidine-3-carboxylic acid [2-(ethyl-phenyl-amino)-ethyl]-amide]
- WNV NS3 protein level (western blot) (WNV NS3 protein): reduced viral protein only at the 10 uM
- Toxicity (uM)* (BHK 26.5 replicon cells): >10 µM
- cell toxicity (BHK cells): only slight cell toxicity
- WNV titer reduced (WNV; 20 μM, BHK cells, titered on Vero cells): approximately 90%
- selective index (WNV; estimated): more than 8
- activity in the WNV infection assay (WNV; live WNV): inhibited WNV production
- IC50 (WNV replicon): 10 µM
- Fold decrease (HTS) (WNV replicon): 7 Fold
- Fold decrease (Re-test) (WNV replicon): 6 Fold

SMILES: COc1ccc(CC(=O)Nc2ccc(C(=N)NO)cc2)cc1 [Compound 331-D11, N-[4-(N-Hydroxycarbamimidoyl)-phenyl]-2-(4-methoxy-phenyl)-acetamide]
- WNV NS3 protein level (western blot) (WNV NS3 protein): dose dependency is also clearly seen
- Toxicity (uM)* (BHK 26.5 replicon cells): >30 µM
- IC50 (WNV replicon): 5 µM
- Fold decrease (HTS) (WNV replicon): 4 Fold
- Fold decrease (Re-test) (WNV replicon): 2 Fold
